According to US7834174B2, “Per-6-guanidino-, alkylamino-cyclodextrins, methods of their synthesis and their use for the compaction of DNA and intercellular delivery” (priority 2004, dated 2010):
Structures can show the parent of a compound that is named as a salt.

Experiments:
HeLa cells = assay: Cell penetration of FITC-labeled compounds by fluorescence microscopy; assay type: cell-based, human; conditions: 100 or 200 μM, 1 h incubation at 37° C.
[1] = test system: ultrapure calf thymus DNA 13 kb; assay: DNA compaction: electrophoresis in agarose gel with ethidium bromide as stain; assay type: binding; conditions: control substances, wells B-H and b (10 λ to 1 λ diluted 1:10)
5 kbp DNA = assay: Atomic force microscopy (AFM, tapping mode) of DNA incubated with compound; conditions: 5 kbp DNA incubated with compound
Source text: The DNA-bguan interaction was confirmed with UV absorption spectra. The absorption maximum and the shape of the absorbance curve of DNA changed appreciably in the presence of 1 equivalent bguan, indicating a distinct change of its structure in buffer solution. In addition, when a 5 kbp DNA was examined under the atomic force microscope (AFM) in the tapping mode, nematoid (long warm-like) formations of up to 1 μm were observed. […] This actually proves that DNA compacts not in big aggregates but in nanoparticles of size suitable to cross a cell membrane.

Compound: fluorescein isothiocyanate [treated FITC]
- fluorescence inside the cytoplasm (HeLa cells): did not show any fluorescence

Compound: OC[C@H]1O[C@@H]2O[C@H]3[C@H](O)[C@@H](O)[C@@H](O[C@H]4[C@H](O)[C@@H](O)[C@@H](O[C@H]5[C@H](O)[C@@H](O)[C@@H](O[C@H]6[C@H](O)[C@@H](O)[C@@H](O[C@H]7[C@H](O)[C@@H](O)[C@@H](O[C@H]8[C@H](O)[C@@H](O)[C@@H](O[C@H]1[C@H](O)[C@H]2O)O[C@@H]8CO)O[C@@H]7CO)O[C@@H]6CO)O[C@@H]5CO)O[C@@H]4CO)O[C@@H]3CO [β-cyclodextrin]
- interaction with DNA under the electrophoresis conditions [1]: do not display any kind of interaction with DNA

Compound: NCCNCC1OC2OC3C(CNCCN)OC(OC4C(CNCCN)OC(OC5C(CNCCN)OC(OC6C(CNCCN)OC(OC7C(CNCCN)OC(OC8C(CNCCN)OC(OC1C(O)C2O)C(O)C8O)C(O)C7O)C(O)C6O)C(O)C5O)C(O)C4O)C(O)C3O (stereo not drawn) [bpen, Heptakis(6-deoxy-6-aminoethylamino)-β-cyclodextrin]
- elongated (nematoid) DNA forms under AFM (5 kbp DNA): complete absence of the elongated forms
- diameter of round DNA nanoparticles (5 kbp DNA; AFM): ~40 nm

Compound: N=C(N)N [guanidine hydrochloride]
- interaction with DNA under the electrophoresis conditions [1]: do not display any kind of interaction with DNA
